Measured values: patent US20240400986A1, “MEMBRANE BOUND COMPOSITIONS AND METHODS RELATING TO SAME” (FLAGSHIP PIONEERING INNOVATIONS VII, LLC, priority 2021, published 2024)
Peptide text beside a SMILES is read from it. * marks the point of attachment. Cbz = O=C(OCc1ccccc1)*

Test system: neuronal cells
Assay: Gigasome-mediated extraction of stress granule-associated protein HuR (fixed plates, confocal)
Assay type: cell-based, human
Method: For this paradigm, cells were treated with a low sodium arsenite concentration of 5 μM either alone or in combination with the proteasome inhibitor MG-132 at 0.2 μM. A vehicular control amount of DMSO was added to the media to comparatively study cargo signals within cells and gigasomes. Treatments were carried out in reduced serum-containing media for 24 hours to mimic a chronic exposure to arsenite. The presence of the stress-granule-related cargo within cells and in gigasomes was characterized and quantified by confocal microscopy analysis of 4% paraformaldehyde. Non-specific labeling was blocked by incubation with 5% normal goat serum in PBS in the presence of 0.1% Triton X-100, for 2 h at room temperature, followed by immunolabeling with an antibody against the RNA-binding protein HuR (see Table 12) and incubation with Alexa Fluor® 568 secondary antibodies. Phalloidin Alexa Fluor® 488 was used to mark the proximal plasma membrane. Nuclei were counterstained with DAPI.
Images were captured using a Zeiss LSM 900 confocal microscope and a 40× objective. For analysis, 10×16-bit images per well were processed to obtain a final total range of 75-200 cells. Composite images were separated in the different channels. The background was subtracted from the red cargo-related channel, as described in Example 13a. The nuclear signal in the blue channel was thresholded using the “Yen” autothreshold algorithm. To measure the nuclear-to-cytosolic translocation of the stress-granule-related protein cargo upon treatment, firstly, the cargo-related nuclear signal was subtracted from the respective red channel image by creating a nuclear selection from the thresholded blue channel image, which was added to ImageJ Manager. The nuclear selection was then transferred to the background-subtracted red channel and the nuclear cargo signal was removed from the image leaving only the cytosolic signal. The cleared red channel image was thresholded using the “default” autothreshold algorithm for downstream particle analysis. To measure the cytosolic cargo signal, a cellular mask was then generated by thresholding the Green/F-actin channel using the “Li” autothreshold method. A cytosolic selection was created, added to ImageJ Manager, and transferred to the background subtracted, nuclear-cleared red channel image. The cytosolic cargo signal (integrated density) was measured and normalized to the number of nuclei counted in each field. Particle analysis was performed as described in Example 13a, using the thresholded green channel to identify particles of interest by filtering by area and circularity and re-directing to the blue and red channel for absence of nuclear signal and eventual presence of disease-related cargo, respectively. The quantity or distribution of objects obtained from the particle analysis was obtained as described in Example 13a.

## CC(C)C[C@@H](C=O)NC(=O)[C@H](CC(C)C)NC(=O)[C@H](CC(C)C)NC(=O)OCc1ccccc1 [MG-132, reference compound] (Cbz-Leu-Leu-Leu-aldehyde)
5 μM sodium arsenite, 0.2 μM MG-132, alone or combined, 24 h, compared to DMSO (FIG. 7B)
  HuR cytosolic signal: increased
FIG. 7E
  HuR+ve particle intensity distribution (gigasome diameter and brightness): larger in diameter and brighter
Compared to sodium arsenite alone and DMSO (FIG. 7D)
  HuR average intensity within gigasomes: higher
